Experimental data taken from patent US9840512B2, “Antidiabetic bicyclic compounds” (Merck Sharp & Dohme Corp., priority 2013, dated 2017).

Each compound was assayed against T1, human GPR40 (Homo sapiens, UniProt O14842) (assay: Inositol Phosphate Turnover (IP1) Assay 1). Details: Human IP1 Assay 1, EC50, nM, HEK cells stably expressing human GPR40.
T1 sequence (O14842 whole entry): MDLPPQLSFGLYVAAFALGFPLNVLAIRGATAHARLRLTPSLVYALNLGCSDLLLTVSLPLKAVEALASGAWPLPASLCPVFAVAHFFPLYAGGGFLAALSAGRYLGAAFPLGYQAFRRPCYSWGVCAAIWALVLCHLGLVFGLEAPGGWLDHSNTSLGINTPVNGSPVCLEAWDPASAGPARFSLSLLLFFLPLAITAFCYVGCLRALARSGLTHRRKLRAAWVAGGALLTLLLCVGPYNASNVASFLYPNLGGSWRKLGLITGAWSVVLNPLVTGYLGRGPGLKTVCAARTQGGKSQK
Protocol: The assay is performed in 96-well format. HEK cells stably expressing human GPR40 are plated to be 60-80% confluent within 72 h. After 72 h, the plates are aspirated and the cells washed with inositol-free DMEM (ICN). The wash media is replaced with 150 μL of 3H-inositol labeling media (inositol-free media containing 0.4% human albumin or 0.4% mouse albumin, 1× pen/strep antibiotics, glutamine, 25 mM HEPES to which is added 3H-myo-inositol NEN #NET114A 1 mCi/mL, 25 Ci/mmol diluted 1:150 in loading media with a final specific radioactivity of 1 μCi/150 μL). Alternatively, the human and mouse albumin can be added after the overnight labeling step before the addition of LiCl.
The assay is typically run the next day after 18 h labeling. On the day of the assay, 5 μL of 300 mM LiCl is added to all wells and incubated at 37 degrees for 20 min. 0.75 μL of 200× compounds are added and incubated with the cells for 60 min at 37 degrees. The media is then aspirated off and the assay terminated with the addition of 60 μL 10 mM formic acid. The cells are lysed for 60 min at room temperature. 15-30 μL of lysate is mixed with 70 μL/1 mg YSi SPA beads (Amersham) in clear bottom Isoplates. The plates are shaken for 2 h at room temperature. Beads are allowed to settle and the plates are counted in the Wallac Microbeta.
An EC50 of 710 nM was found for `CC#CC(CC(=O)O)c1ccc2c(c1)CCC(c1nc(-c3c(C)cccc3C)ccc1F)O2` (mixture of isomers) [Example 16] in this work. An EC50 of 4500 nM was found for `CC#CC(CC(=O)O)c1ccc2c(c1)CCC(c1nc(-c3ccc(OC)nc3C)ccc1F)O2` (mixture of isomers) [Example 19] in this work. An EC50 of 638 nM was found for `CC#CC(CC(=O)O)c1ccc2c(c1)CCC(c1cccc(-c3c(C)noc3C)c1)O2` (mixture of isomers) [Example 22] in this work. An EC50 of 116 nM was found for `CC#CC(CC(=O)O)c1ccc2c(c1)CCC(c1cccc(Oc3ccc(C#N)cc3)c1)O2` (mixture of isomers) [Example 23] in this work. An EC50 of 58 nM was found for `CC#CC(CC(=O)O)c1ccc2c(c1)CCC(c1cc(-c3ccc(OC)nc3C)ccc1F)O2` (mixture of isomers) [Example 24] in this work. An EC50 of 726 nM was found for `CC#CC(CC(=O)O)c1ccc2c(c1)CCC(c1cccc(-c3ccccc3C(F)(F)F)c1)O2` (mixture of isomers) [Example 27] in this work. An EC50 of 536 nM was found for `CC#CC(CC(=O)O)c1ccc2c(c1)CCC(c1cc(Br)ccc1F)O2` (mixture of isomers) [Example 28] in this work. An EC50 of 60 nM was found for `CC#C[C@@H](CC(=O)O)c1ccc2c(c1)CCC(c1cc(-c3cccnc3C(F)(F)F)ccc1F)O2` (mixture of isomers) [Example 31] in this work. An EC50 of 149 nM was found for `CC#C[C@@H](CC(=O)O)c1ccc2c(c1)CCC(c1cccc(-c3cccc4c3c(C(F)(F)F)nn4C)c1)O2` (mixture of isomers) [Example 32] in this work. An EC50 of 1300 nM was found for `CC#C[C@@H](CC(=O)O)c1ccc2c(c1)CCC(c1cc(C3=CCCC3(C)C)ccc1F)O2` (mixture of isomers) [Example 33] in this work. An EC50 of 6060 nM was found for `CC(C)=CC(CC(=O)O)c1ccc2c(c1)CCC(c1cccc(-c3c(C)cccc3C)c1)O2` (mixture of isomers) [Example 44] in this work. An EC50 of 877 nM was found for `CC#C[C@@H](CC(=O)O)c1ccc2c(c1)CCC(c1ccc(OCc3ccccc3)cc1)O2` (mixture of isomers) [Example 50] in this work. An EC50 of 1200 nM was found for `CC#C[C@@H](CC(=O)O)c1ccc2c(c1)CCC(c1ccc(-c3cc(OC)ccc3F)cc1)O2` (mixture of isomers) [Example 51] in this work. An EC50 of 248 nM was found for `CC#C[C@@H](CC(=O)O)c1ccc2c(c1)CCC(c1ccc(OCc3ccccc3)c(-c3c(C)cccc3C)c1)O2` (mixture of isomers) [Example 52] in this work. An EC50 of 2520 nM was found for `Cc1ccccc1-c1cc(F)c(C2CCc3cc4c(cc3O2)OC[C@H]4CC(=O)O)cc1-c1ccccc1C` (mixture of isomers) [Example 59] in this work. An EC50 of 3630 nM was found for `Cc1cccc(C)c1-c1ccc(F)c(C2CCc3cc(CCC(=O)O)ccc3O2)n1` (racemic) [Example 3] in this work. An EC50 of 1700 nM was found for `Cc1cc(OCCS(C)(=O)=O)cc(C)c1-c1cccc(C2CCc3cc(CCC(=O)O)ccc3O2)c1` (racemic) [Example 6] in this work. An EC50 of 1020 nM was found for `COc1ccc(F)c(-c2ccc(C3CCc4ccc(CCC(=O)O)cc4O3)cc2C2=CCCC2(C)C)c1` (racemic) [Example 48] in this work. An EC50 of 544 nM was found for `Cc1cccc(C)c1-c1cccc(C2CCc3cc(CCC(=O)O)ccc3O2)c1` (single isomer, unassigned) [Example 4] in this work. An EC50 of 1670 nM was found for `Cc1cccc(C)c1-c1cccc(C2CCc3cc(CCC(=O)O)ccc3O2)c1` (single isomer, unassigned) [Example 5] in this work. An EC50 of 83 nM was found for `CC#C[C@@H](CC(=O)O)c1ccc2c(c1)CCC(c1cc(-c3c(C)cccc3C)ccc1F)O2` (single isomer, unassigned) [Example 21] in this work. An EC50 of 31 nM was found for `CC#C[C@@H](CC(=O)O)c1ccc2c(c1)CCC(c1cc(-c3cccnc3C(F)(F)F)ccc1F)O2` (single isomer, unassigned) [Example 35] in this work. An EC50 of 47 nM was found for `CC#C[C@@H](CC(=O)O)c1ccc2c(c1)CCC(c1cc(-c3ccc(OC)nc3C)ccc1F)O2` (single isomer, unassigned) [Example 37] in this work. An EC50 of 1690 nM was found for `CC#C[C@@H](CC(=O)O)c1ccc2c(c1)CCC(c1cc(-c3ccc(OC)nc3C)ccc1F)O2` (single isomer, unassigned) [Example 38] in this work. An EC50 of 175 nM was found for `CC#C[C@@H](CC(=O)O)c1ccc2c(c1)CCC(c1cccc(-c3cccc4c3c(C(F)(F)F)nn4C)c1)O2` (single isomer, unassigned) [Example 41] in this work. An EC50 of 1220 nM was found for `CC#C[C@@H](CC(=O)O)c1ccc2c(c1)CCC(c1cccc(-c3cccc4c3c(C(F)(F)F)nn4C)c1)O2` (single isomer, unassigned) [Example 42] in this work. An EC50 of 1210 nM was found for `Cc1cccc(C)c1-c1cccc(C2CCc3cc(CCC(=O)O)ccc3O2)c1` (centres unmarked) [Example 1, 3-(2-(2′,6′-dimethyl-[1,1′-biphenyl]-3-yl)chroman-6-yl)propanoic acid] in this work. An EC50 of 1910 nM was found for `Cc1ccccc1-c1ccc(F)c(C2CCc3cc4c(cc3O2)OC[C@H]4CC(=O)O)c1` (some centres unmarked) [Example 56] in this work.

The compounds below were run against T1, human GPR40 (assay: FLIPR assay (agonist-induced calcium mobilization)). Details: Human FLIPR EC50, nM or % activation (EC50 values), GPR40/CHO NFAT BLA cells.
Protocol: Human and mouse GPR40 stable cell-lines were generated in CHO cells stably expressing NFAT BLA (Beta-lactamase). […] The expression plasmids were transfected using lipofectamine (Life Technologies) following manufacturer's instructions. Stable cell-lines were generated following drug selection.
FLIPR (Fluorimetric Imaging Plate Reader, Molecular Devices) assays were performed to measure agonist-induced calcium mobilization of the stable clones. For the FLIPR assay, one day before assay, GPR40/CHO NFAT BLA cells were seeded into black-wall-clear-bottom 384-well plates (Costar) at 1.4×10e4 cells/20 μL medium/well. The cells were incubated with 20 μl/well of the assay buffer (HBSS, 0.1% BSA, 20 mM HEPES, 2.5 mM probenecid, pH 7.4) containing 8 μM fluo-4, AM, 0.08% pluronic acid at room temperature for 100 minutes. Fluorescence output was measured using FLIPR. Compounds were dissolved in DMSO and diluted to desired concentrations with assay buffer.
An EC50 of 76 nM was found for `CC#CC(CC(=O)O)c1ccc2c(c1)CCC(c1nc(-c3c(C)cccc3C)ccc1F)O2` (mixture of isomers) [Example 16] in this work. An EC50 of 106 nM was found for `CC#CC(CC(=O)O)c1ccc2c(c1)CCC(c1nc(-c3ccc(OC)nc3C)ccc1F)O2` (mixture of isomers) [Example 19] in this work. An EC50 of 151 nM was found for `CC#CC(CC(=O)O)c1ccc2c(c1)CCC(c1cccc(-c3c(C)noc3C)c1)O2` (mixture of isomers) [Example 22] in this work. An EC50 of 40 nM was found for `CC#CC(CC(=O)O)c1ccc2c(c1)CCC(c1cccc(Oc3ccc(C#N)cc3)c1)O2` (mixture of isomers) [Example 23] in this work. An EC50 of 57 nM was found for `CC#CC(CC(=O)O)c1ccc2c(c1)CCC(c1cc(-c3ccc(OC)nc3C)ccc1F)O2` (mixture of isomers) [Example 24] in this work. An EC50 of 52 nM was found for `CC#CC(CC(=O)O)c1ccc2c(c1)CCC(c1cccc(-c3ccccc3C(F)(F)F)c1)O2` (mixture of isomers) [Example 27] in this work. An EC50 of 115 nM was found for `CC#CC(CC(=O)O)c1ccc2c(c1)CCC(c1cc(Br)ccc1F)O2` (mixture of isomers) [Example 28] in this work. An EC50 of 95 nM was found for `CC#C[C@@H](CC(=O)O)c1ccc2c(c1)CCC(c1cc(-c3cccnc3C(F)(F)F)ccc1F)O2` (mixture of isomers) [Example 31] in this work. An EC50 of 57 nM was found for `CC#C[C@@H](CC(=O)O)c1ccc2c(c1)CCC(c1cccc(-c3cccc4c3c(C(F)(F)F)nn4C)c1)O2` (mixture of isomers) [Example 32] in this work. An EC50 of 114 nM was found for `CC#C[C@@H](CC(=O)O)c1ccc2c(c1)CCC(c1cc(C3=CCCC3(C)C)ccc1F)O2` (mixture of isomers) [Example 33] in this work. An EC50 of 69 nM was found for `CC(C)=CC(CC(=O)O)c1ccc2c(c1)CCC(c1cccc(-c3c(C)cccc3C)c1)O2` (mixture of isomers) [Example 44] in this work. An EC50 of 9 nM was found for `CC#C[C@@H](CC(=O)O)c1ccc2c(c1)CCC(c1ccc(OCc3ccccc3)cc1)O2` (mixture of isomers) [Example 50] in this work. An EC50 of 105 nM was found for `CC#C[C@@H](CC(=O)O)c1ccc2c(c1)CCC(c1ccc(-c3cc(OC)ccc3F)cc1)O2` (mixture of isomers) [Example 51] in this work. An EC50 of 17 nM was found for `CC#C[C@@H](CC(=O)O)c1ccc2c(c1)CCC(c1ccc(OCc3ccccc3)c(-c3c(C)cccc3C)c1)O2` (mixture of isomers) [Example 52] in this work. An EC50 of 51 nM was found for `Cc1ccccc1-c1cc(F)c(C2CCc3cc4c(cc3O2)OC[C@H]4CC(=O)O)cc1-c1ccccc1C` (mixture of isomers) [Example 59] in this work. An EC50 of 292 nM was found for `Cc1cccc(C)c1-c1ccc(F)c(C2CCc3cc(CCC(=O)O)ccc3O2)n1` (racemic) [Example 3] in this work. An EC50 of 185 nM was found for `Cc1cc(OCCS(C)(=O)=O)cc(C)c1-c1cccc(C2CCc3cc(CCC(=O)O)ccc3O2)c1` (racemic) [Example 6] in this work. An EC50 of 12 nM was found for `COc1ccc(F)c(-c2ccc(C3CCc4ccc(CCC(=O)O)cc4O3)cc2C2=CCCC2(C)C)c1` (racemic) [Example 48] in this work. An EC50 of 38 nM was found for `Cc1cccc(C)c1-c1cccc(C2CCc3cc(CCC(=O)O)ccc3O2)c1` (single isomer, unassigned) [Example 4] in this work. An EC50 of 85 nM was found for `Cc1cccc(C)c1-c1cccc(C2CCc3cc(CCC(=O)O)ccc3O2)c1` (single isomer, unassigned) [Example 5] in this work. An EC50 of 26 nM was found for `CC#C[C@@H](CC(=O)O)c1ccc2c(c1)CCC(c1cc(-c3c(C)cccc3C)ccc1F)O2` (single isomer, unassigned) [Example 21] in this work. An EC50 of 37 nM was found for `CC#C[C@@H](CC(=O)O)c1ccc2c(c1)CCC(c1cc(-c3cccnc3C(F)(F)F)ccc1F)O2` (single isomer, unassigned) [Example 35] in this work. An EC50 of 38 nM was found for `CC#C[C@@H](CC(=O)O)c1ccc2c(c1)CCC(c1cc(-c3ccc(OC)nc3C)ccc1F)O2` (single isomer, unassigned) [Example 37] in this work. An EC50 of 83 nM was found for `CC#C[C@@H](CC(=O)O)c1ccc2c(c1)CCC(c1cc(-c3ccc(OC)nc3C)ccc1F)O2` (single isomer, unassigned) [Example 38] in this work. An EC50 of 64 nM was found for `CC#C[C@@H](CC(=O)O)c1ccc2c(c1)CCC(c1cccc(-c3cccc4c3c(C(F)(F)F)nn4C)c1)O2` (single isomer, unassigned) [Example 41] in this work. An EC50 of 74 nM was found for `CC#C[C@@H](CC(=O)O)c1ccc2c(c1)CCC(c1cccc(-c3cccc4c3c(C(F)(F)F)nn4C)c1)O2` (single isomer, unassigned) [Example 42] in this work. An EC50 of 102 nM was found for `Cc1cccc(C)c1-c1cccc(C2CCc3cc(CCC(=O)O)ccc3O2)c1` (centres unmarked) [Example 1, 3-(2-(2′,6′-dimethyl-[1,1′-biphenyl]-3-yl)chroman-6-yl)propanoic acid] in this work. An EC50 of 117 nM was found for `Cc1ccccc1-c1ccc(F)c(C2CCc3cc4c(cc3O2)OC[C@H]4CC(=O)O)c1` (some centres unmarked) [Example 56] in this work.
